According to ChEMBL document CHEMBL5108065 (J Med Chem, 2022):
Calls of active or inactive are those of the source. The rule behind the calls is not given here.

Experiments:
[1] = system: Plasmodium falciparum; assay: Antimalarial activity against Plasmodium falciparum infected NSG mouse model assessed as accumulation of circulating mature schizonts measured after 2 cycles of drug exposure at 60 mg/kg, po bid administered daily for 3 days; assay type: functional, organism-based; details: time 3.0 day
[2] = Oral bioavailability in Cynomolgus monkey blood at 10 mg/kg measured at 2 to 72 hrs by LC-MS/MS analysis; assay type: ADME, organism-based, Macaca fascicularis; details: time 2-72 hrs
[3] = Toxicity in Han Wistar rat assessed as changes in ophthalmology at 250 to 1000 mg/kg, po administered every other day for 7 days; assay type: organism-based; details: in vivo, 168 h, dose 250-1000 mg/kg, time 7 day
[4] = Toxicity in Han Wistar rat assessed as body weight gain at 250 to 1000 mg/kg, po administered every other day for 7 days; assay type: organism-based; details: in vivo, 168 h, dose 250-1000 mg/kg, time 7 day
[5] = Toxicity in Han Wistar rat assessed as effect on photopic amplitude at 1000 mg/kg, po administered every other day for 7 days by ERG analysis; assay type: organism-based; details: in vivo, 168 h, time 7 day
[6] = Toxicity in Han Wistar rat assessed as effect on implicit times and latency at 1000 mg/kg, po administered every other day for 7 days by ERG analysis; assay type: organism-based; details: in vivo, 168 h, time 7 day
[7] = molecular target: Plasmepsin X (Plasmodium falciparum (isolate 3D7)) (UniProt Q8IAS0); details: Expi293F GnTI-
Description: Inhibition of Plasmodium falciparum recombinant C-terminal TEV cleavable 8his-tagged PMX by FRET assay

[8] = Inhibition of Plasmodium falciparum PMV by FRET assay
[9] = system: Plasmodium falciparum; assay: Antimalarial activity against asexual blood stage Plasmodium falciparum 3D7 assessed as parasite growth inhibition by measuring parasitemia by LDH assay; assay type: functional, organism-based
[10] = Lipophilicity, log D of the compound; assay type: physicochemical; details: octanol/water
[11] = AUClast in NSG mouse at 50 mg/kg, po by LC-MS/MS analysis; assay type: ADME, organism-based; set-up: time 0 - last, dose 50 mg/kg, route po; details: in vivo
[12] = system: Plasmodium falciparum; assay: Antimalarial activity against blood stage Plasmodium infected in NSG mouse model assessed as parasite recrudescence by measuring parasitemia at 50 mg/kg, po measured 96 hrs by flow cytometry; assay type: functional, organism-based
[13] = Drug metabolism in human hepatocytes assessed as (S)-6-(2-chloro-3-((6-cyclopropylpyridin-3-yl)amino)phenyl)-2-imino-6-methyltetrahydropyrimidin-4(1H)-one metabolite formation; assay type: ADME, cell-based, Hepatocyte
[14] = Drug metabolism in dog hepatocytes assessed as (S)-6-(2-chloro-3-((6-cyclopropylpyridin-3-yl)amino)phenyl)-2-imino-6-methyltetrahydropyrimidin-4(1H)-one metabolite formation; assay type: ADME, cell-based, Canis lupus familiaris, Hepatocyte
[15] = molecular target: Potassium voltage-gated channel subfamily A member 5 (Homo sapiens, UniProt P22460); assay: Inhibition of Kv1.5 (unknown origin) by patch clamp method; assay type: toxicity
Potassium voltage-gated channel subfamily A member 5, sequence (P22460 whole entry): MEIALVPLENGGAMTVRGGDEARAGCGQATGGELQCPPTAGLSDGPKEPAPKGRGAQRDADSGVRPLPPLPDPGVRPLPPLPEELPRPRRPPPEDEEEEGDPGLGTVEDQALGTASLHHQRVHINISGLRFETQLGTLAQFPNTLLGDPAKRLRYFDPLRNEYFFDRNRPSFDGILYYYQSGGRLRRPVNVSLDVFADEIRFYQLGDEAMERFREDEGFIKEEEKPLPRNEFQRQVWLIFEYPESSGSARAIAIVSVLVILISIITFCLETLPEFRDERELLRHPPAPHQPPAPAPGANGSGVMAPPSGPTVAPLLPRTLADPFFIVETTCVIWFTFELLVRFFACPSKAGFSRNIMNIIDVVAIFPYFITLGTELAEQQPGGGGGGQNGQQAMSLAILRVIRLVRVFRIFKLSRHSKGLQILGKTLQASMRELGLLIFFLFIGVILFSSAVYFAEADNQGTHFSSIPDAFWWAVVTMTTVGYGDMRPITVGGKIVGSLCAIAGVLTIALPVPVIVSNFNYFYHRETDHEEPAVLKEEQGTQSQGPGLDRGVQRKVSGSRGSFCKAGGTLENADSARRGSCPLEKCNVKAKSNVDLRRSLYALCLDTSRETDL

Plasmepsin X (Plasmodium falciparum (isolate 3D7)), sequence (Q8IAS0 whole entry): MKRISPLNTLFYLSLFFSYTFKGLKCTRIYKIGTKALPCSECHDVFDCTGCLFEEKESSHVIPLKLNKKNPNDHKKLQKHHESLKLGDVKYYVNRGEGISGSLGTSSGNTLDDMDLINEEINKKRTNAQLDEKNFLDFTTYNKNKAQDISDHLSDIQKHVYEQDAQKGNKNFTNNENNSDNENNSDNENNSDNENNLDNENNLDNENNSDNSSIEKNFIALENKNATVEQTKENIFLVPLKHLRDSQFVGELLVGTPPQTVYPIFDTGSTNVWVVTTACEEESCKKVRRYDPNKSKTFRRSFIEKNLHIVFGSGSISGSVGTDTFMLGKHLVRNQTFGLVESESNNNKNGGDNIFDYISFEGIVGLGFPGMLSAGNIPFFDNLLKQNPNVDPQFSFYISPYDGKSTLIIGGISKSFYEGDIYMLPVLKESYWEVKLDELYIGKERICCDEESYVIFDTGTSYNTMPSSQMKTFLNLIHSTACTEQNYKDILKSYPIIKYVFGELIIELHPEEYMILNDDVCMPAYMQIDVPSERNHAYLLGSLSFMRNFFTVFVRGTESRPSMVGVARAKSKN

C[C@H]1C[C@@H](N2C(=N)N[C@](C)(c3cccc(NC(=O)c4cccc(C#N)c4)c3Cl)CC2=O)CCO1
Activity [1]: Active | bioavailability [2]: 39% | Activity [3]: Non-Toxic | Activity [4]: Non-Toxic | Activity [5]: Non-Toxic | Activity [6]: Non-Toxic | IC90 [7]: 0.052 µM

C[C@H]1C[C@@H](N2C(=N)N[C@](C)(c3cccc(Nc4ccc(C5CC5)nc4)c3Cl)CC2=O)CCO1
IC50 [8]: > 10 µM | IC50 [9]: 0.014 µM | logD [10]: 2.5 | AUC [11]: 2 10^6nM | Activity [12]: Active | Drug metabolism [13]: Metabolite_Detected | Drug metabolism [14]: Metabolite_Detected | IC50 [15]: 5 µM
